Legend:
[1] = molecular target: T1, Corticotropin-releasing factor receptor 2 (Homo sapiens, UniProt Q13324)
T1 sequence (Q13324 whole entry): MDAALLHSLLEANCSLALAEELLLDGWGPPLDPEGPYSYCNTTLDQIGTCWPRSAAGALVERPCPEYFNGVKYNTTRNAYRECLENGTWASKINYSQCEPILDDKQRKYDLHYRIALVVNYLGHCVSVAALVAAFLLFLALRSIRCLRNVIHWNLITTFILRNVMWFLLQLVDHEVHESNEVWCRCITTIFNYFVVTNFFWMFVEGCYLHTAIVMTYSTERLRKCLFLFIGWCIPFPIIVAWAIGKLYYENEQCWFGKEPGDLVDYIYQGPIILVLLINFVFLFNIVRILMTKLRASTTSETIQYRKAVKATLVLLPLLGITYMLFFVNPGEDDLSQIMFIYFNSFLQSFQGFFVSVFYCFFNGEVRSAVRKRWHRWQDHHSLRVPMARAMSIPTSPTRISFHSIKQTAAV

[2] = molecular target: T2, Estrogen receptor (Homo sapiens, UniProt P03372)
T2 sequence (P03372 whole entry): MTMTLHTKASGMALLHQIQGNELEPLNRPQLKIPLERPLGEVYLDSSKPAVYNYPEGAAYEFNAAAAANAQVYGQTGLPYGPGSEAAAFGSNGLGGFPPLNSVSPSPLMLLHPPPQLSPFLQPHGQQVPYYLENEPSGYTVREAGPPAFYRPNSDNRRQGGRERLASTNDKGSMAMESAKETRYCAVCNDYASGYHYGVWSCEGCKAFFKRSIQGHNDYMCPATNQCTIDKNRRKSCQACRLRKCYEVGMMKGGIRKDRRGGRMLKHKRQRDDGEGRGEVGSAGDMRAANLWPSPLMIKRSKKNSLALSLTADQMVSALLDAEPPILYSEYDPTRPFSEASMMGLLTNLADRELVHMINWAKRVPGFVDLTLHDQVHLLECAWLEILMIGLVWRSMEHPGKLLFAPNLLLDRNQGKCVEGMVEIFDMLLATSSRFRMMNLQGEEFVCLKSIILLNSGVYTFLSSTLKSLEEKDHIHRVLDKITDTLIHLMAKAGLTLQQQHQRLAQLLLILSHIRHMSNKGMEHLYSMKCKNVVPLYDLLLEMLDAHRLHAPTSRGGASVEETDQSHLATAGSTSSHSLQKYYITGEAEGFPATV

[3] = molecular target: Histamine H2 receptor (Homo sapiens, UniProt P25021)
Sequence of Histamine H2 receptor (P25021 whole entry): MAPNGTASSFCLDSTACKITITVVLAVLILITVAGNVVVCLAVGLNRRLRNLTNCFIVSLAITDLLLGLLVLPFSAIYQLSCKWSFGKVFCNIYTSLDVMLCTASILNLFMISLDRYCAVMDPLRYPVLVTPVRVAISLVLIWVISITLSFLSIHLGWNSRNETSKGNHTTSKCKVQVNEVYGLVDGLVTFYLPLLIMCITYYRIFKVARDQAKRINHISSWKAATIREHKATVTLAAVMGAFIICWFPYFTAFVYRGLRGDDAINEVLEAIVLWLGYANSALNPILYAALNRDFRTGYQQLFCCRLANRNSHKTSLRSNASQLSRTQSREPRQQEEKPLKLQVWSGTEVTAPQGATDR

[4] = molecular target: 5-hydroxytryptamine receptor 2B (Homo sapiens, UniProt P41595)
Sequence of 5-hydroxytryptamine receptor 2B (P41595 whole entry): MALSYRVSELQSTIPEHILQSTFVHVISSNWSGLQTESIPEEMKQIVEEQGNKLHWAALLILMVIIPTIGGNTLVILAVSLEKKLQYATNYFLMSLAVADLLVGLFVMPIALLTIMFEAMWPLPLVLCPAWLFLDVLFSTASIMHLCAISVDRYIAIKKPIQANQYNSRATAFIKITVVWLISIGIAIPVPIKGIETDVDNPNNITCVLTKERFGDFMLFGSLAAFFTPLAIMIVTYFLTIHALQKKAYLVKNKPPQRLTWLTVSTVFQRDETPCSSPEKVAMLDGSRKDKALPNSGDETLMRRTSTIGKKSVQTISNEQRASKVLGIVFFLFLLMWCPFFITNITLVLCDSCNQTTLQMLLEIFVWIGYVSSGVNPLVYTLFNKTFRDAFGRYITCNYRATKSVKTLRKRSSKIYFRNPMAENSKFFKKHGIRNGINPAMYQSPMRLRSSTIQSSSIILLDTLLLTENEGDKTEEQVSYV

[5] = molecular target: T3, Progesterone receptor (Homo sapiens, UniProt P06401)
T3 sequence (P06401 whole entry): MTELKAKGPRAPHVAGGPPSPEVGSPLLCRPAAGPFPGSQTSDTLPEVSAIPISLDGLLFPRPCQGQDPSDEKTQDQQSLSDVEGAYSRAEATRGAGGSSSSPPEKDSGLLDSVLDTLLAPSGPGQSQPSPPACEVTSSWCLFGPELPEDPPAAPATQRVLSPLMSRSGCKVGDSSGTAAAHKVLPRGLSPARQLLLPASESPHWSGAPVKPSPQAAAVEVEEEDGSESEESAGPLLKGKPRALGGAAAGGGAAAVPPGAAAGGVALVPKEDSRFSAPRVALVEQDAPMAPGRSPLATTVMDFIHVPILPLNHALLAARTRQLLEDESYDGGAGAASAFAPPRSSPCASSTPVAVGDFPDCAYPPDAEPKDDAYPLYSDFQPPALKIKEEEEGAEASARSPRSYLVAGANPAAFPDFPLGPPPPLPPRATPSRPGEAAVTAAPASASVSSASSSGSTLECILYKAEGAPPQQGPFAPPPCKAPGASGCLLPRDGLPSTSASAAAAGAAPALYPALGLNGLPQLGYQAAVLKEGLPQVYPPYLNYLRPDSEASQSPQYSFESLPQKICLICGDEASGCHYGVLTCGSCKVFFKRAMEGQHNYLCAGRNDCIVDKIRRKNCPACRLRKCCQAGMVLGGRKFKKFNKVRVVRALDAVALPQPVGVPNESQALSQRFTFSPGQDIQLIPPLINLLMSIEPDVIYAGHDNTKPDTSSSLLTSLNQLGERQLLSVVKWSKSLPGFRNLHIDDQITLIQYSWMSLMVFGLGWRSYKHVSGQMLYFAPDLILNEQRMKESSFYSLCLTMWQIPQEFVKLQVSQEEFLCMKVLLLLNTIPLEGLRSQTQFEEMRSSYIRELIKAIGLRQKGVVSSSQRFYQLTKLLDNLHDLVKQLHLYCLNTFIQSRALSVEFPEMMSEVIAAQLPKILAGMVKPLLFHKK

[6] = molecular target: T4, 5-hydroxytryptamine receptor 1A (Homo sapiens, UniProt P08908)
T4 sequence (P08908 whole entry): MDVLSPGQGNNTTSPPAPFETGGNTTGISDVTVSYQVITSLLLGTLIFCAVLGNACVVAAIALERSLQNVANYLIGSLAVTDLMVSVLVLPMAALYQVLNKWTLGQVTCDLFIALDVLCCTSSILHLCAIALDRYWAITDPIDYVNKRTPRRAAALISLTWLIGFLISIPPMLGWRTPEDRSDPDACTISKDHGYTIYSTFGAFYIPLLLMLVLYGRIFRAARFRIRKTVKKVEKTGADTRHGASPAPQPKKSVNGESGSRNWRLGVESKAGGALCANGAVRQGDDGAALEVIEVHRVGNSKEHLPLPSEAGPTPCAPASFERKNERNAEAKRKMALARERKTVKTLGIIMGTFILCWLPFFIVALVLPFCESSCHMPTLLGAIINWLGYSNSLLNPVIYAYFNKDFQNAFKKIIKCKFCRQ
Further: assay procedure not described here.

SMILES	AC50 [1]	AC50 [2]	AC50 [3]	AC50 [4]	AC50 [5]	AC50 [6]
C=CC[C@@H]1/C=C(\C)C[C@H](C)C[C@H](OC)[C@H]2O[C@@](O)(C(=O)C(=O)N3CCCC[C@H]3C(=O)O[C@H](/C(C)=C/[C@@H]3CC[C@@H](O)[C@H](OC)C3)[C@H](C)[C@@H](O)CC1=O)[C@H](C)C[C@@H]2OC [TACROLIMUS ANHYDROUS]	> 30 µM	> 30 µM	> 10 µM	> 10 µM	> 30 µM	> 10 µM
COc1ccccc1Oc1c(NS(=O)(=O)c2ccc(C(C)(C)C)cc2)nc(-c2ncccn2)nc1OCCO [BOSENTAN]	> 30 µM	> 30 µM	> 10 µM	> 10 µM	> 30 µM	> 10 µM

From ChEMBL document CHEMBL5291721, “A preclinical secondary pharmacology resource illuminates target-adverse drug reaction associations of marketed drugs” (Nat Commun, 2023)
